The target in experiment [1] is T1, FKBP12 (Homo sapiens, UniProt P62942). Briefly: Spectral shift target engagement assay, binary binding to FKBP12. The following applies: 40 nM FKBP12-NTA; for Kd: KC,1 = EC50 − [Ctot]/2. The source says:
(§1) Our method of choice is the spectral shift method, which monitors binding events on the target isothermally and in equilibrium via an environment-sensitive near-infrared fluorophore. In the case of target engagement, either the proximity of the ligand towards the dye or structural changes occurring in the target as a result of binding lead to a change in the chemical environment of the fluorophore. Those changes affect the physiochemical properties of the reporter fluorophore and translate into either blue or red shifts (or peak broadening) of emission peaks upon ligand binding, which can be sensitively monitored by simultaneously recording the fluorescence at two wavelengths (i.e., at 650 nm and 670 nm). Calculating the ratio between the two fluorescence channels then allows to monitor subtle emission shifts that occur as a result of target engagement. Affinity measurements can then be performed by recording the spectral shift as a function of ligand concentration.
(§2) Binding studies through FKBP12: To monitor the binding of R,--SLF-11 by the stronger binding FKBP12 in the absence and in the presence of 10 μM MAPRE1 via %Cbound, binary and %Cbound, ternary, respectively, the concentration of reversibly NTA-labeled FKBP12 was limited to [Ctot] = 40 nM. […] In contrast to the experimental setup in the previous two binding experiments with monitoring through the weaker binding protein MAPRE1, where the applied protein concentrations were optimally chosen, this is not the case for the binding experiment through the stronger binder FKBP12. First of all, the applied excess of T with [Ttot] = 10 μM is roughly 20000-fold off of the proposed 100 times KT,1 threshold, which would correspond to 180 mM. Only under such excess conditions of T can the equilibrium of forming TL under the constraint that all ligand L is bound to T be reached to ensure that [Ltot] approaches the “ligand” concentration [TL]. […] If KC,2 is sufficiently high, the 20 nM deviation to correct for the protein concentration could be neglected. However, the resulting calculated value for KC,2 is 0.023 nM, accounting for the cooperativity α = 10,405 and KC,1 = 234 nM as derived by the MAPRE1 experiment. This value is far below the applied protein concentration of [Ctot] = 40 nM and makes it infeasible to estimate KC,2 from the EC50 of the %Cbound, ternary curve. Consequently, the EC50 shifts, meaning the apparent cooperativity, from monitoring the binding by the stronger binding protein C are diverging from the underlying intrinsic cooperativity α. […] The deviation of calculated (254 nM/24.2 nM = 10.5) and measured apparent cooperativity (254 nM/66 nM = 3.8) can be explained by a negative cooperativity induced by the His6-NTA tag of FKBP12. Studies to lower [Ctot] and identify a better position for the spectral shift tag on FKBP12 are ongoing (Figure 6a).
(§3) His-tagged FKBP12 was labeled using the His-Tag Labeling Kit RED-tris-NTA 2nd Generation (MO-L018; NanoTemper Technologies GmbH). The affinity between NTA dye and the His-tag of FKBP12 was determined as 7 nM. MAPRE1 was labeled using the Protein Labeling Kit RED-NHS 2nd Generation (MO-L011; NanoTemper Technologies GmbH). In brief, 10 µM of MAPRE1 was incubated with a 3-fold molar excess of fluorophore for 30 min. The unreacted fluorophore was removed by performing a size exclusion purification (B-column). Collecting the protein fraction yielded 1.8 µM labeled MAPRE1, with a degree of labeling of 0.8, as determined on a Nanodrop.
(§4) A 1:2 dilution series of all compounds (starting from the 10 mM stock concentration) was prepared in pure DMSO. Each concentration was diluted 25-fold with assay buffer (20 mM HEPES, pH 7.4, 150 mM NaCl, 1 mM DTT (all from Carl Roth, Karlsruhe, Germany), and 0.01% Pluronic F-127 (Sigma Aldrich, Taufkirchen, Germany)). Next, 10 µL from each of the prepared ligand dilutions was transferred into an empty well on a Dianthus Microwell Plate (DI-P001A). […]

Experiment [2] deals with FKBP12 in the presence of MAPRE1 (Homo sapiens, UniProt P62942+Q15691). The experiment can be described thus: Spectral shift target engagement assay, binding to FKBP12 in the presence of 10 μM MAPRE1 (ternary).
Excerpt: as §1, §2, §3, §4

Experiment [3] deals with T2, MAPRE1 in the presence of FKBP12 (Homo sapiens, UniProt P62942+Q15691).
T2 construct: His-tag (N)
The experiment can be described thus: Spectral shift target engagement assay, binding to MAPRE1 in the presence of 10 μM FKBP12 (ternary). The following applies: for Ratio [Ctot]/KC,1: [Ctot] = 10 μM FKBP12.
Excerpt: as §1
Binding study through MAPRE1: MAPRE1 was labeled via lysines using an NHS-conjugated dye. The final concentration of MAPRE1NHS (referring to [Ttot]) was 5 nM. Compounds could be titrated up to a concentration of 200 μM (referring to [Ltot]). […] However more accuracy could only be achieved at higher ligand concentrations—ideally at full target saturation. However, this was experimentally infeasible due to assay conditions (i.e., the requirement of maintaining a certain DMSO concentration or avoiding solubility issues of the ligand). Although the determined KT,1 values of binding to MAPRE1 are only approximations, their relative ranking reflects the underlying differences in the affinity of the ligands L to MAPRE1. Performing these experiments in duplicates confirmed the high signal-to-noise ratio, i.e., there was no significant deviation between the two curves, indicating a high accuracy of the interpolated EC50 values. Due to the low [Ttot] = 5 nM, this value coincides with KT,1 (1.8 mM − 0.005 mM/2 ≈ 1.8 mM). […] Consequently, KT,2 corresponds to 173 nM and not 177.5 nM.
as §3
A 1:2 dilution series of all compounds (starting from the 10 mM stock concentration) was prepared in pure DMSO. Each concentration was diluted 25-fold with assay buffer (20 mM HEPES, pH 7.4, 150 mM NaCl, 1 mM DTT (all from Carl Roth, Karlsruhe, Germany), and 0.01% Pluronic F-127 (Sigma Aldrich, Taufkirchen, Germany)). Next, 10 µL from each of the prepared ligand dilutions was transferred into an empty well on a Dianthus Microwell Plate (DI-P001A). Another 10 µL of 2-fold concentrated labeled protein (either in the absence or the presence of 20 µM counter protein, both in assay buffer then yielded the final assay concentrations. Interaction measurements were prepared in duplicates for each condition. For binary interactions of compounds with MAPRE1, a final target concentration of 5 nM and a highest ligand concentration of 50 µM was prepared. For ternary interactions of compounds and MAPRE1 in the presence of 10 µM unlabeled FKBP12, the highest ligand concentration was increased to 200 µM, the highest concentration achievable while maintaining a constant 2% DMSO concentration. For all interactions measured via FKBP12, the target was prepared at a final concentration of 40 nM, supplemented with 5 nM NTA fluorophore. […]

Experiment [4] relates to FKBP12:R,S-SLF-X:MAPRE1 ternary complex. Also on record: method as in PMID 40059881. The following applies: TR-FRET proximity assay, reported earlier; cited from earlier work. For orientation: In TR-FRET formats the signal depends on donor and acceptor labels being close together.
The target in experiment [5] is T1, FKBP12. Also on record: method as in PMID 40059881. The following applies: TR-FRET competitive binding assay from previous work; read-out: EC50_FKBP12; cited from earlier work.
Experiment [6] concerns the target T3, MAPRE1 (Homo sapiens, UniProt Q15691).
T3 construct: His-tag (N)
T3 sequence (Q15691 1-268): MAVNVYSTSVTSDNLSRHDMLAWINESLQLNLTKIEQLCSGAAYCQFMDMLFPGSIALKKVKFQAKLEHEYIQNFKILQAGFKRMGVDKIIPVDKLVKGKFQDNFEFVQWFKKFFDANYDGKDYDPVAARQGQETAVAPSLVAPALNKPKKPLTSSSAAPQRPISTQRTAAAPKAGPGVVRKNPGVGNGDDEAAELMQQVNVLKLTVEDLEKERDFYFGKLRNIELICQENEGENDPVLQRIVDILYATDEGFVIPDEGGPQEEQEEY
Details: method as in PMID 40059881. The following applies: previous NMR studies; read-out: affinity for MAPRE1; cited from earlier work.

Experiment [7] deals with T3, MAPRE1. Briefly: Spectral shift target engagement assay, binary binding to MAPRE1. The following applies: up to [Ltot] = 200 μM.
Setting [8] is: 40 nM FKBP12-NTA, 10 μM MAPRE1, read-out: EC50 of the %Cbound, ternary curve (measured).

Results on two compounds are retold here after paper PMC11989212, “Experimental Conditions to Retrieve Intrinsic Cooperativity α Directly from Single Binding Assay Data Exemplified by the Ternary Complex Formation of FKBP12, MAPRE1 and Macrocyclic Molecular Glues” (International Journal of Molecular Sciences, 2025).

“Also recorded” adds a separate entry of the source. Like-named read-outs stand apart in the source and are kept apart here. Some results are limits rather than exact numbers.

T2 sequence (P62942 whole entry, one chain of several): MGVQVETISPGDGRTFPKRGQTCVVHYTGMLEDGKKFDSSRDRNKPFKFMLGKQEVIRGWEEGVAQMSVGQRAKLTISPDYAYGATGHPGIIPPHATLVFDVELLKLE
Chain of FKBP12 in the presence of MAPRE1 (P62942 whole entry, one chain of several): as above
T1 sequence (P62942 whole entry, species assumed): as the sequence (P62942 whole entry, one chain of several) above

Take `C=C1CCN2C(=O)COc3cccc(c3)C(CCc3ccc(OC)c(OC)c3)OC(=O)C3CCCCN3C(=O)C(=O)C(C)(C)COC(=O)C(C)NC(=O)C2C1` (stereo not shown) [R,S-SLF-1a]: the EC50 in experiment [1] (no MAPRE1, read-out: EC50 of the %Cbound, binary curve) was 41 nM; in experiment [2] (setting [8]), 45 nM; in experiment [2] (calculated with the model using α from MAPRE1 binding, read-out: calc EC50 of the %Cbound, ternary curve), 20 nM; in experiment [3] (5 nM MAPRE1-NHS, 10 μM FKBP12, read-out: EC50 of the %Tbound, ternary curve) it was 1030 nM; in experiment [5] it was 230 nM. Moreover, the Kd in experiment [1] was 21 nM; in experiment [3] (ternary Kd, model-based ([CL] at [Ltot] = EC50), read-out: KT,2), 1020 nM; in experiment [6], over 250000 nM. In addition, the “Ratio [Ctot]/KC,1” value in experiment [3] is listed as 476. The “100 × (EC50 %Tbound ternary − 0.5 [Ttot] − KT,2)/KT,2” value in experiment [3] (difference between EC50 of the %Tbound, ternary curve and KT,2, [Ttot] = 5 nM) was determined as 0.3%. Also, in experiment [3] (from KC,1, KT,1 and EC50 of the %Tbound, ternary curve with the mathematical model, [Ctot] = 10,000 nM, [Ttot] = 5 nM), the “Intrinsic cooperativity α” value is 1951. Moreover, in experiment [4], the “TR-FRET Recruitment Assay (%Amax)” value is reported as 51%.

For the compound `COc1ccc(CCC2OC(=O)C3CCCCN3C(=O)C(=O)C(C)(C)COC(=O)C(C)NC(=O)C3CC(O)CN3C(=O)COc3cccc2c3)cc1OC` (stereo not shown) [R,S-SLF-12], the Kd in experiment [1] was 13 nM. Further, the figures for the EC50 in experiment [2] (setting [8]) and in experiment [5] were 30 nM and 43 nM, respectively. In addition, the “ternary binding to MAPRE1” value in experiment [3] (10 μM FKBP12) is given as “Neither binary nor ternary binding”. Moreover, the “Ratio [Ctot]/KC,1” value in experiment [3] was 769. Further, the “TR-FRET Recruitment Assay (%Amax)” value in experiment [4] was 0%. Further, the “binary binding to MAPRE1 (%Tbound, binary)” value in experiment [7] is listed as “no binding; also recorded: Neither binary nor ternary binding”.
